How the values were obtained:
Assay type in all cases: cell-based
Aspergillus flavus = assay: Agar plate disc-diffusion, antifungal activity (inhibition zone); settings: fungal, DMSO control zone subtracted
Protocol: (§1) The agar plate disc-diffusion method was applied. […] The discs were then placed onto the surface of agar plates (nutrient agar for bacteria and Sabouraud's dextrose agar for fungi) seeded with the test organism. Each plate contained 15 mL of the agar medium, previously seeded with 0.2 mL of the broth culture of each organism pregrown for 18 hours. The plates were incubated at 37° C. for 48 hours, and 72 hours for fungi. The inhibition zones was measured in mm. Discs impregnated with DMSO were used as a control, and its inhibition zone was subtracted from the tested compound actual inhibition zone.

[1] = system: Chrysosporium keratinophilum; assay: as above; settings: fungal, DMSO control zone subtracted
Protocol: as §1

Escherichia coli = assay: Agar plate disc-diffusion, antibacterial activity (inhibition zone); settings: Gram negative, DMSO control zone subtracted
Protocol: as §1

Staphylococcus aureus = assay: as above; settings: Gram positive, DMSO control zone subtracted
Protocol: as §1

Pseudomonas aeruginosa = assay: as above; settings: Gram negative, DMSO control zone subtracted
Protocol: as §1

Bacillus cereus = assay: as above; settings: Gram positive, DMSO control zone subtracted
Protocol: as §1

[2] = A = concentration of comp. = 10,000 μL
[3] = B = concentration of comp. = 30,000 μL
[4] = C = concentration of comp. = 50,000 μL

Structure (SMILES): O=C(O)c1ccc(-n2c(-c3ccc(Cl)cc3)nc(-c3ccc(Cl)cc3)c2-c2ccc(Cl)cc2)cc1 [V, 4-(2,4,5-tris(4-chlorophenyl)-1H-imidazol-1-yl)benzoic acid]
- inhibition zone, Aspergillus flavus, A (Aspergillus flavus; [2]): 21 mm
- inhibition zone, Aspergillus flavus, B (Aspergillus flavus; [3]): 24 mm
- inhibition zone, Aspergillus flavus, C (Aspergillus flavus; [4]): 35 mm
- inhibition zone, Chrysosporium keratinophilum, A [1, 2]: 25 mm
- inhibition zone, Chrysosporium keratinophilum, B [1, 3]: 28 mm
- inhibition zone, Chrysosporium keratinophilum, C [1, 4]: 48 mm
- inhibition zone, Escherichia coli, A (Escherichia coli; [2]): 25 mm
- inhibition zone, Escherichia coli, B (Escherichia coli; [3]): 28 mm
- inhibition zone, Escherichia coli, C (Escherichia coli; [4]): 39 mm
- inhibition zone, Staphylococcus aureus, A (Staphylococcus aureus; [2]): 15 mm
- inhibition zone, Staphylococcus aureus, B (Staphylococcus aureus; [3]): 22 mm
- inhibition zone, Staphylococcus aureus, C (Staphylococcus aureus; [4]): 26 mm
- inhibition zone, Pseudomonas aeruginosa, A (Pseudomonas aeruginosa; [2]): 24 mm
- inhibition zone, Pseudomonas aeruginosa, B (Pseudomonas aeruginosa; [3]): 27 mm
- inhibition zone, Pseudomonas aeruginosa, C (Pseudomonas aeruginosa; [4]): 32 mm
- inhibition zone, Bacillus Cereus, A (Bacillus cereus; [2]): 24 mm
- inhibition zone, Bacillus Cereus, B (Bacillus cereus; [3]): 27 mm
- inhibition zone, Bacillus Cereus, C (Bacillus cereus; [4]): 35 mm

— US11932607B1, “4-(2,4,5-tris(4-chlorophenyl)-1H-imidazol-1-yl)benzoic acid as an antimicrobial compound” (KING FAISAL UNIVERSITY, priority 2023, dated 2024)
